Test results published in US11629138B2, “Microbiocidal picolinamide derivatives” (Syngenta Participations AG, priority 2017, dated 2023).

Assays:
[1] = tested on: Monographella nivalis (Microdochium nivale); test: Monographella nivalis (Microdochium nivale) / liquid culture (foot rot cereals); type: cell-based; conditions: 200 ppm in the formulation, PDB broth, 24° C., photometric, 4-5 days after application, vs untreated control, read-out: disease control (inhibition of growth)
Description: (§1) Monographella nivalis (Microdochium nivale)/Liquid Culture (Foot Rot Cereals) Conidia of the fungus from cryogenic storage are directly mixed into nutrient broth (PDB potato dextrose broth). After placing a (DMSO) solution of test compound into a microtiter plate (96-well format), the nutrient broth containing the fungal spores is added. The test plates are incubated at 24° C. and the inhibition of growth is determined photometrically 4-5 days after application.

[2] = tested on: Glomerella lagenarium (Colletotrichum lagenarium); test: Glomerella lagenarium (Colletotrichum lagenarium) / liquid culture (anthracnose); type: cell-based; conditions: Colletotrichum orbiculare; 200 ppm in the formulation; PDB broth, 24° C., photometric, 3 to 4 days after application; vs untreated control; read-out: disease control (inhibition of growth)
Description: as §1, with “Glomerella lagenarium (Colletotrichum lagenarium)/Liquid” for “Monographella nivalis (Microdochium nivale)/Liquid”, “(Anthracnose)” for “(Foot Rot Cereals)”, “measured” for “determined”, “3 to 4” for “4-5”

[3] = tested on: Phaeosphaeria nodorum (Setoria nodorum); test: Phaeosphaeria nodorum (Septoria nodorum) / wheat / leaf disc preventative (glume blotch); type: in vivo; conditions: Parastagonospora nodorum, foliar, 200 ppm in the formulation, wheat leaf segments cv. Kanzler, 5-7 days after application, vs untreated control, read-out: disease control
Description: Phaeosphaeria nodorum (Setoria nodorum)/Wheat/Leaf Disc Preventative (Glume Blotch) Wheat leaf segments cv. Kanzler are placed on agar in a multiwell plate (24-well format) and sprayed with the formulated test compound diluted in water. The leaf disks are inoculated with a spore suspension of the fungus 2 days after application. The inoculated test leaf disks are incubated at 20° C. and 75% rh under a light regime of 12 h light/12 h darkness in a climate cabinet and the activity of a compound is assessed as percent disease control compared to untreated when an appropriate level of disease damage appears in untreated check leaf disks (5-7 days after application).

[4] = tested on: Puccinia recondita f. so. tritici; test: Puccinia recondita f. sp. tritici / wheat / leaf disc preventative (brown rust); type: in vivo; conditions: foliar, 200 ppm in the formulation, wheat leaf segments cv. Kanzler, 7-9 days after application, vs untreated control, read-out: disease control
Description: Puccinia recondita f. so. tritici/Wheat/Leaf Disc Preventative (Brown Rust)
Wheat leaf segments cv. Kanzler are placed on agar in multiwell plates (24-well format) and sprayed with the formulated test compound diluted in water. The leaf disks are inoculated with a spore suspension of the fungus 1 day after application. The inoculated leaf segments are incubated at 19° C. and 75% rh under a light regime of 12 h light/12 h darkness in a climate cabinet and the activity of a compound is assessed as percent disease control compared to untreated when an appropriate level of disease damage appears in untreated check leaf segments (7-9 days after application).

[5] = tested on: Mycosphaerella graminicola (Septoria tritici); test: Mycosphaerella graminicola (Septoria tritici) / liquid culture (Septoria blotch); type: cell-based; conditions: Zymoseptoria tritici; 200 ppm in the formulation; PDB broth, 24° C., photometric, 4 to 5 days after application; vs untreated control; read-out: disease control (inhibition of growth)
Description: as §1, with “Mycosphaerella graminicola (Septoria tritici)/Liquid” for “Monographella nivalis (Microdochium nivale)/Liquid”, “(Septoria Blotch)” for “(Foot Rot Cereals)”, “4 to 5” for “4-5”

[6] = tested on: Mycosphaerella arachidis (Cercospora arachidicola); test: Mycosphaerella arachidis (Cercospora arachidicola) / liquid culture (early leaf spot); type: cell-based; conditions: 200 ppm in the formulation, PDB broth, 24° C., photometric, 4-5 days after application, vs untreated control, read-out: disease control (inhibition of growth)
Description: as §1, with “Mycosphaerella arachidis (Cercospora arachidicola)/Liquid” for “Monographella nivalis (Microdochium nivale)/Liquid”, “(Early Leaf Soot)” for “(Foot Rot Cereals)”

[7] = tested on: Botryotinia fuckeliana (Botrytis cinerea); test: Botryotinia fuckeliana (Botrytis cinerea) liquid culture (gray mould); type: cell-based; conditions: 200 ppm in the formulation, Vogels broth, 24° C., photometric, 3-4 days after application, vs untreated control, read-out: disease control (inhibition of growth)
Description: as §1, with “Botryotinia fuckeliana (Botrytis cinerea) Liquid” for “Monographella nivalis (Microdochium nivale)/Liquid”, “(Gray Mould)” for “(Foot Rot Cereals)”, “(Vogels” for “(PDB potato dextrose”, “3-4” for “4-5”

COc1ccnc(C(=O)N[C@@H](C)C(=O)OC(C)C(C)n2ccc3ccc(C(F)(F)F)cc32)c1O (stereo partly drawn) [I.z.001, [1-methyl-2-[6-(trifluoromethyl)indol-1-yl]propyl] (2S)-2-[(3-hydroxy-4-methoxy-pyridine-2-carbonyl)amino]propanoate]
≥ 80%: inhibition at 200 ppm [1] | inhibition at 200 ppm [2] | pest or weed control at 200 ppm [3] | pest or weed control at 200 ppm [4] | inhibition at 200 ppm [5] | inhibition at 200 ppm [6] | inhibition at 200 ppm [7]

COc1ccnc(C(=O)N[C@@H](C)C(=O)OC(C)C(C)c2ccc3ccccc3n2)c1O (stereo partly drawn) [I.s.001, [1-methyl-2-(2-quinolyl)propyl] (2S)-2-[(3-hydroxy-4-methoxy-pyridine-2-carbonyl)amino]propanoate]
≥ 80%: inhibition at 200 ppm [1] | inhibition at 200 ppm [2] | pest or weed control at 200 ppm [4] | inhibition at 200 ppm [5] | inhibition at 200 ppm [6] | inhibition at 200 ppm [7]

COc1ccnc(C(=O)N[C@@H](C)C(=O)OC(C)C(C)n2cc(C#N)c(-c3cccc(Cl)c3Cl)c2)c1O (stereo partly drawn) [I.ag.001, [2-[3-cyano-4-(2,3-dichlorophenyl)pyrrol-1-yl]-1-methyl-propyl] (2S)-2-[(3-hydroxy-4-methoxy-pyridine-2-carbonyl)amino] propanoate]
≥ 80%: inhibition at 200 ppm [1] | inhibition at 200 ppm [2] | inhibition at 200 ppm [5] | inhibition at 200 ppm [7]

COc1ccnc(C(=O)N[C@@H](C)C(=O)OC(C)C(C)n2ccc3c(Cl)ccc(Cl)c32)c1OC(C)=O (stereo partly drawn) [I.bb.041, [2-(4,7-dichloroindol-1-yl)-1-methyl-propyl] (2S)-2-[(3-acetoxy-4-methoxy-pyridine-2-carbonyl)amino] propanoate]
≥ 80%: inhibition at 200 ppm [1] | inhibition at 200 ppm [2] | pest or weed control at 200 ppm [3] | pest or weed control at 200 ppm [4] | inhibition at 200 ppm [5] | inhibition at 200 ppm [6]

COc1ccnc(C(=O)N[C@@H](C)C(=O)OC(C)C(C)c2sc3ccc(Cl)cc3c2C)c1O (stereo partly drawn) [I.at.001, [2-(5-chloro-3-methyl-benzothiophen-2-yl)-1-methyl-propyl] (2S)-2-[(3-hydroxy-4-methoxy-pyridine-2-carbonyl)amino]propanoate]
≥ 80%: inhibition at 200 ppm [1] | inhibition at 200 ppm [2] | pest or weed control at 200 ppm [3] | pest or weed control at 200 ppm [4] | inhibition at 200 ppm [5] | inhibition at 200 ppm [6]

COc1ccnc(C(=O)N[C@@H](C)C(=O)OC(C)C(C)n2cc(C#N)c(-c3ccccc3Cl)c2)c1O (stereo partly drawn) [I.ah.001, [2-[3-(2-chlorophenyl)-4-cyano-pyrrol-1-yl]-1-methyl-propyl] (2S)-2-[(3-hydroxy-4-methoxy-pyridine-2-carbonyl)amino]propanoate]
≥ 80%: inhibition at 200 ppm [1] | inhibition at 200 ppm [2] | inhibition at 200 ppm [5] | inhibition at 200 ppm [6] | inhibition at 200 ppm [7]

COc1ccnc(C(=O)N[C@@H](C)C(=O)OC(C)C(C)n2ccc3cc(F)c(Cl)cc32)c1O (stereo partly drawn) [I.av.001, [2-(6-chloro-5-fluoro-indol-1-yl)-1-methyl-propyl] (2S)-2-[(3-hydroxy-4-methoxy-pyridine-2-carbonyl)amino]propanoate]
≥ 80%: inhibition at 200 ppm [2] | pest or weed control at 200 ppm [4] | inhibition at 200 ppm [5] | inhibition at 200 ppm [6]

COc1ccnc(C(=O)N[C@@H](C)C(=O)OC(C)C(C)n2ccc3cc(F)cc(F)c32)c1O (stereo partly drawn) [I.ay.001, [2-(5,7-difluoroindol-1-yl)-1-methyl-propyl] (2S)-2-[(3-hydroxy-4-methoxy-pyridine-2-carbonyl)amino] propanoate]
≥ 80%: inhibition at 200 ppm [1] | inhibition at 200 ppm [2] | pest or weed control at 200 ppm [3] | pest or weed control at 200 ppm [4] | inhibition at 200 ppm [5] | inhibition at 200 ppm [6]

COc1ccnc(C(=O)N[C@@H](C)C(=O)OC(C)C(C)n2ccc3c(Br)ccc(F)c32)c1O (stereo partly drawn) [I.ab.001, [2-(4-bromo-7-fluoro-indol-1-yl)-1-methyl-propyl] (2S)-2-[(3-hydroxy-4-methoxy-pyridine-2-carbonyl)amino]propanoate]
≥ 80%: inhibition at 200 ppm [1] | inhibition at 200 ppm [2] | pest or weed control at 200 ppm [3] | pest or weed control at 200 ppm [4] | inhibition at 200 ppm [5] | inhibition at 200 ppm [6] | inhibition at 200 ppm [7]

COc1ccnc(C(=O)N[C@@H](C)C(=O)OC(C)C(C)n2ccc3ccc(F)cc32)c1O (stereo partly drawn) [I.v.001, [2-(6-fluoroindol-1-yl)-1-methyl-propyl] (2S)-2-[(3-hydroxy-4-methoxy-pyridine-2-carbonyl)amino]propanoate]
≥ 80%: inhibition at 200 ppm [1] | inhibition at 200 ppm [2] | pest or weed control at 200 ppm [4] | inhibition at 200 ppm [5] | inhibition at 200 ppm [6] | inhibition at 200 ppm [7]

COc1ccnc(C(=O)N[C@@H](C)C(=O)OC(C)C(C)n2ccc3cc(F)ccc32)c1O (stereo partly drawn) [I.w.001, [2-(5-fluoroindol-1-yl)-1-methyl-propyl] (2S)-2-[(3-hydroxy-4-methoxy-pyridine-2-carbonyl)amino]propanoate]
≥ 80%: inhibition at 200 ppm [1] | inhibition at 200 ppm [2] | pest or weed control at 200 ppm [4] | inhibition at 200 ppm [5] | inhibition at 200 ppm [6] | inhibition at 200 ppm [7]

COc1ccnc(C(=O)N[C@@H](C)C(=O)OC(C)C(C)n2ccc3cc(Cl)c(Cl)cc32)c1O (stereo partly drawn) [I.au.001, [2-(5,6-dichloroindol-1-yl)-1-methyl-propyl] (2S)-2-[(3-hydroxy-4-methoxy-pyridine-2-carbonyl)amino] propanoate]
≥ 80%: inhibition at 200 ppm [1] | inhibition at 200 ppm [2] | pest or weed control at 200 ppm [4] | inhibition at 200 ppm [5] | inhibition at 200 ppm [6] | inhibition at 200 ppm [7]

COc1ccnc(C(=O)N[C@@H](C)C(=O)OC(C)C(C)n2ccc3ccc(Cl)cc32)c1O (stereo partly drawn) [I.x.001, [2-(6-chloroindol-1-yl)-1-methyl-propyl] (2S)-2-[(3-hydroxy-4-methoxy-pyridine-2-carbonyl)amino]propanoate]
≥ 80%: inhibition at 200 ppm [2] | pest or weed control at 200 ppm [4] | inhibition at 200 ppm [5] | inhibition at 200 ppm [6] | inhibition at 200 ppm [7]

COc1ccnc(C(=O)N[C@@H](C)C(=O)OC(C)C(C)n2ncc3ccccc32)c1O (stereo partly drawn) [I.ae.001, (2-indazol-1-yl-1-methyl-propyl) (2S)-2-[(3-hydroxy-4-methoxy-pyridine-2-carbonyl)amino]propanoate]
≥ 80%: pest or weed control at 200 ppm [4] | inhibition at 200 ppm [5] | inhibition at 200 ppm [6]

COc1ccnc(C(=O)N[C@@H](C)C(=O)OC(C)C(C)n2ccc3cc(F)c(Br)cc32)c1O (stereo partly drawn) [I.aw.001, [2-(6-bromo-5-fluoro-indol-1-yl)-1-methyl-propyl] (2S)-2-[(3-hydroxy-4-methoxy-pyridine-2-carbonyl)amino]propanoate]
≥ 80%: inhibition at 200 ppm [2] | pest or weed control at 200 ppm [4] | inhibition at 200 ppm [5] | inhibition at 200 ppm [6]
